How the values were obtained:
[1] = tested on: Stave IV Metastatic melanoma; test: Phase III study, elesclomol in combination with paclitaxel versus paclitaxel alone; assay type: in vivo, human; details: for Median (months) Overall Survival / Median (months) PFS: Phase III; for Median Progression Free Survival: Phase III metastatic melanoma, chemotherapy-naive
Experimental: Further, a Phase III study was performed to test elesclomol in combination with paclitaxel versus paclitaxel alone in chemotherapy-naïve subjects with Stave IV Metastatic melanoma. Subjects with metastatic melanoma were randomized with a ratio of 1:1 to either the treatment arm (elesclomol 213 mg/m^2 in combination with paclitaxel 80 mg/m^2) or the control arm (paclitaxel 80 mg/m^2 alone) once per week for the first three weeks, followed by one week off (i.e., a 28 day cycle with dosing on days 1, 8, and 14) with the 28 day dosing cycle repeated until tumor progression, likely resulting in complete clearance of elesclomol between doses. The population enrolled into the study was to have baseline LDH levels limited to 2 times upper limit of normal (ULN) values.

[2] = tested on: Stage 1V Metastatic melanoma; test: Phase I/II study, elesclomol in combination with paclitaxel; assay type: in vivo, human; details: i.v. weekly for three weeks of 28 day cycle
Experimental: For example, a Phase I/II study was performed to test elesclomol in combination with paclitaxel in patients with Stage 1V Metastatic melanoma. Subjects were dosed intravenously with 80 mg/m^2 of paclitaxel either with or without 213 mg/m^2 of elesclomol once per week for the first three weeks, followed by one week off (i.e., a 28 day cycle with dosing on days 1, 8, and 14) with the 28 day dosing cycle repeated until tumor progression, likely resulting in complete clearance of elesclomol between doses.

For `CC(=O)O[C@H]1C(=O)[C@@]2(C)[C@H]([C@H](OC(=O)c3ccccc3)[C@]3(O)C[C@H](OC(=O)[C@H](O)[C@@H](NC(=O)c4ccccc4)c4ccccc4)C(C)=C1C3(C)C)[C@]1(OC(C)=O)CO[C@@H]1C[C@@H]2O` [P alone, paclitaxel], the “Median (months) Overall Survival” value ([1]; High LDH (>1 × ULN)) was 8.1 months, the “Median (months) PFS” value ([1]; High LDH (>1 × ULN)) was 1.9 months and the “Median Progression Free Survival” value ([1]; High LDH) was 1.9 (95% CI: 1.8-2.6) months. The “Median (months) Overall Survival” value ([1]; ITT Population) was 11.7 months, the “Median (months) PFS” value ([1]; ITT Population) was 1.9 months and the “Median (months) PFS” value ([1]; Low LDH (≦0.8 × ULN)) was 2.1 months. The “Median (months) Overall Survival” value ([1]; Low LDH (≦0.8 × ULN), listed as Paclitaxel alone) was “Not Ach”, the “Median (months) Overall Survival” value ([1]; Low LDH (≦0.8 × ULN), listed as paclitaxel alone) was “not achieved” and the “Median Progression Free Survival” value ([1]; Low LDH) was 2.1 (95% CI: 1.9-3.6) months. For the same compound, the “Median (months) Overall Survival” value ([1]; Normal LDH (≦1 × ULN)) was 14.5 months, the “Median (months) PFS” value ([1]; Normal LDH (≦1 × ULN)) was 2.1 months and the “Median Progression Free Survival” value ([2]; High LDH) was 1.6 (95% CI: 1.0-3.0) months. For the same compound, the “Median Progression Free Survival” value ([2]; High LDH, listed as paclitaxel) was 1.6 months, the “Median Progression Free Survival” value ([2]; Low LDH) was 3.5 (95% CI: 1.6-7.3) months and the “Median Progression Free Survival” value ([2]; Low LDH, listed as paclitaxel) was 3.5 months.
